molecular target: T1, human TSHR (Homo sapiens, UniProt P16473); assay: Antagonist activity using TSH-induced cAMP production in human TSHR-stably expressing CHO cells; type: cell-based; conditions: human TSH final concentration of 50 ng/mL, cAMP production rate
T1 construct: expressed in transfected cells
Procedure: Measurement of antagonist activity using TSH-induced cAMP production in human TSHR-stably expressing CHO cells as an indicator
The gene sequence (reference number NM_000369.2) of human TSHR was inserted into the multiple cloning site of pcDNA3.1(+). The prepared plasmid vector was introduced into CHO cells using a lipofection method to establish human TSHR-stably expressing CHO cells. The obtained cells were seeded at 5 x 10^4 cells/well in a 96-well poly-D-lysine-coated plate, and cultured in an F12 culture medium containing 10% FBS, 400 µg/mL of G418, 50 U/mL of penicillin and 50 µg/mL of streptomycin under conditions of 37°C and 5% CO2 for 1 day. The culture medium was removed, and the cells were then washed twice with 100 µL of an assay buffer (Hanks' Balanced Salt Solution containing 20 mM HEPES and 1 mM IBMX) per well. 30 µL of an assay buffer containing a test compound was added to the well, and incubation was performed at room temperature for 15 minutes. Then, 30 µL of an assay buffer containing human TSH (a final concentration of 50 ng/mL, R&D Systems, Inc.) was added, and incubation was performed at 37°C for 1 hour. The supernatant was removed, a Lysis and Detection Buffer 2 (Cisbio) was added, and incubation was performed at room temperature for 1 hour to prepare a cell lysate. According to the instruction manual of a cAMP Gs HiRange kit (Cisbio), the cell lysate, d2-labeled cAMP and anti-cAMP Europium Cryptate labeled antibodies (Cisbio) were reacted in a 384-well white microplate. Then, a fluorescence intensity ratio (measurement wavelength 665 nm/620 nm) was measured using a multi-plate reader (PHERAstar FSX, BMG LABTECH Japan). The fluorescence intensity ratio of each sample was converted to a cAMP content using a standard curve. The cAMP content was converted as a percentage of the control value to calculate a cAMP production rate. The cAMP production rate was plotted against the test compound concentration using Prism (Graph Pad Software Inc.) to calculate the IC50 value. In the tables, IC50<3.0 µM was indicated as A, and 3.0 µM≤IC50<30 µM was indicated as B. If activity was observed but the IC50 value could not be calculated, it was indicated as C.

T1 sequence (P16473 21-764): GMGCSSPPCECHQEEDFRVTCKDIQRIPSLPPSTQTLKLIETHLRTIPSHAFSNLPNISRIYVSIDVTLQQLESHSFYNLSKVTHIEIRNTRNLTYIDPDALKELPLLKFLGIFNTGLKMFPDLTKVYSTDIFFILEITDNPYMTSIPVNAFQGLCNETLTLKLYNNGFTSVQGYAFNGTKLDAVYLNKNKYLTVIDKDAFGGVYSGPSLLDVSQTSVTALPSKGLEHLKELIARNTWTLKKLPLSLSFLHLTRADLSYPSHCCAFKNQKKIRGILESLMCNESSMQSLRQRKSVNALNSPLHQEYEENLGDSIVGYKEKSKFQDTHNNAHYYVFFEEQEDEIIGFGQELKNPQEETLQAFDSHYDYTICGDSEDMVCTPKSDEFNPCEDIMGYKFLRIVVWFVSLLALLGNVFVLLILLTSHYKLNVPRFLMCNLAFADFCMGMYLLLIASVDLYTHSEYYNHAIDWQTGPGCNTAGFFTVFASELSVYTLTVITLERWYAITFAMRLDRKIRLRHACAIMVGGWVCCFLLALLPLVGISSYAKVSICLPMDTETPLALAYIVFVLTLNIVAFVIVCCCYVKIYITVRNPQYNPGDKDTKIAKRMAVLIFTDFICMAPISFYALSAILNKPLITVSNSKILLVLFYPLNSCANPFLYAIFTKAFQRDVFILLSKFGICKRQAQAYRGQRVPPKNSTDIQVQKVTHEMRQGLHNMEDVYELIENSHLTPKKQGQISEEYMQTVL

Row | Compound | IC50
1 | CN1C(=O)[C@H](NC(N)=O)Cc2sc(Br)c(Cc3cc(F)ccc3Cl)c21 [Example 39, (R)-1-(2-bromo-3-(2-chloro-5-fluorobenzyl)-4-methyl-5-oxo-4,5,6,7-tetrahydrothieno[3,2-b]pyridin-6-yl)urea] | < 3 µM
2 | CN1C(=O)C(CC(N)=O)Cc2cc(NC(=O)OC3CCCC3)cc(Oc3ccccc3)c21 (centres unmarked) [Example 2, cyclopentyl (3-(2-amino-2-oxoethyl)-1-methyl-2-oxo-8-phenoxy-1,2,3,4-tetrahydroquinoline-6-yl)carbam ate] | < 3 µM
3 | Cc1ccc2c(c1Oc1cc(F)ccc1Cl)N(C)C(=O)[C@H](NC(=O)c1ccccc1)C2 [Example 20, (R)-N-(8-(2-chloro-5-fluorophenoxy)-1,7-dimethyl-2-oxo-1,2,3,4-tetrahydroquinoline-3-yl)b enzamide] | < 3 µM
4 | CN1C(=O)[C@H](Nc2ncc[nH]2)Cc2cccc(Oc3cc(F)ccc3Cl)c21 [Example 34, (R)-3-((1H-imidazole-2-yl)amino)-8-(2-chloro-5-fluorophenoxy)-1-methyl-3,4-dihydroquinoline-2(1H)-one] | 3 to 30 µM
5 | CN1C(=O)[C@H](NC2=NC(=O)CN2)Cc2cccc(Oc3cc(F)ccc3Cl)c21 [Example 33, (R)-8-(2-chloro-5-fluorophenoxy)-1-methyl-3-((4-oxo-4,5-dihydro-1H-imidazole-2-yl)amino)-3,4-dihydroquinoline-2(1H)-one] | 3 to 30 µM
6 | CN1C(=O)[C@H](NC(N)=O)Cc2cccc(C(=O)c3ccccc3Cl)c21 [Example 11, (R)-1-(8-(2-chlorobenzoyl)-1-methyl-2-oxo-1,2,3,4-tetrahydroquinoline-3-yl)urea] | < 3 µM
7 | CN1C(=O)C(OC(N)=O)Cc2cccc(Oc3cc(F)ccc3Cl)c21 (centres unmarked) [Example 26, 8-(2-chloro-5-fluorophenoxy)-1-methyl-2-oxo-1,2,3,4-tetrahydroquinoline-3-yl carbamate] | < 3 µM
8 | CN1C(=O)[C@H](NC(N)=O)Cc2cccc(OCc3ccccc3)c21 [Example 18, (R)-1-(8-(benzyloxy)-1-methyl-2-oxo-1,2,3,4-tetrahydroquinoline-3-yl)urea] | > 30 µM
9 | CN1C(=O)C(NC(N)=O)Cc2cc(NC(=O)OC3(C)CC3)cc(Oc3cccc(C(F)(F)F)n3)c21 (centres unmarked) [Example 8, 1-methylcyclopropyl (1-methyl-2-oxo-8-((6-(trifluoromethyl)pyridin-2-yl)oxy)-3-ureido-1,2,3,4-tetrahydroquinoline-6-yl)carbamate] | < 3 µM
10 | CN1C(=S)C(NC(N)=O)Cc2cccc(Oc3cc(F)ccc3Cl)c21 (centres unmarked) [Example 27, 1-(8-(2-chloro-5-fluorophenoxy)-1-methyl-2-thioxo-1,2,3,4-tetrahydroquinoline-3-yl)urea] | < 3 µM
11 | CN1C(=O)[C@H](NC(N)=O)Cc2scc(Cc3cc(F)ccc3Cl)c21 [Example 37, (R)-1-(3-(2-chloro-5-fluorobenzyl)-4-methyl-5-oxo-4,5,6,7-tetrahydrothieno[3,2-b]pyridine-6-yl)urea] | < 3 µM
12 | CC(C)OC(=O)Nc1cc2c(c(Oc3cccc(C(F)(F)F)n3)c1)N(C)C(=O)C(NC(N)=O)C2 (centres unmarked) [Example 9, isopropyl (1-methyl-2-oxo-8-((6-trifluoromethylpyridin-2-yl)oxy)-3-ureido-1,2,3,4-tetrahydroquinoline-6-yl)carbamate] | < 3 µM
13 | CN1C(=O)[C@H](N2CCNC2=O)Cc2cccc(Oc3cc(F)ccc3Cl)c21 [Example 24, (R)-8-(2-chloro-5-fluorophenoxy)-1-methyl-3-(2-oxoimidazolidine-1-yl)-3,4-dihydroquinoline-2(1H)-one] | 3 to 30 µM
14 | CC(c1ccccc1)c1cccc2c1N(C)C(=O)N(CC(N)=O)C2 (centres unmarked) [Example 30, 2-(1-methyl-2-oxo-8-(1-phenylethyl)-1,4-dihydroquinazoline-3(2H)-yl)acetamide] | > 30 µM
15 | C[C@H](OC(=O)Nc1cc2c(c(Oc3cccc(C(F)(F)F)n3)c1)N(C)C(=O)C(NC(N)=O)C2)C(F)(F)F (stereo partly drawn) [Example 6, (S)-1,1,1-trifluoropropan-2-yl (1-methyl-2-oxo-8-((6-trifluoromethylpyridin-2-yl)oxy)-3-ureido-1,2,3,4-tetrahydroquinoline-6-yl)carbamate] | < 3 µM
16 | CC1(c2ccccc2)CCN2C(=O)[C@H](NC(N)=O)Cc3cccc1c32 (stereo partly drawn) [Example 16, 1-((2R)-7-methyl-3-oxo-7-phenyl-2,3,6,7-tetrahydro-1H,5H-pyrido[3,2,1-ij]quinoline-2-yl)ur ea] | 3 to 30 µM

Row | Compound | IC50
17 | CN1C(=O)C(CNC(N)=O)Cc2cccc(Oc3ccccc3)c21 (centres unmarked) [Example 10, 1-((1-methyl-2-oxo-8-phenoxy-1,2,3,4-tetrahydroquinoline-3-yl)methyl)urea] | 3 to 30 µM
18 | CN1C(=O)[C@H](NC(N)=O)Cc2sc(CO)c(Cc3cc(F)ccc3Cl)c21 [Example 41, (R)-1-(3-(2-chloro-5-fluorobenzyl)-2-(hydroxymethyl)-4-methyl-5-oxo-4,5,6,7-tetrahydrothieno[3,2-b]pyridin-6-yl)urea] | < 3 µM
19 | CC1(c2ccccc2)C(=O)C(C)(C)N2C(=O)[C@H](NC(N)=O)Cc3cccc1c32 (stereo partly drawn) [Example 17, 1-((2R)-5,5,7-trimethyl-3,6-dioxo-7-phenyl-2,3,6,7-tetrahydro-1H,5H-pyrido[3,2,1-ij]quinoline-2-yl)urea] | < 3 µM
20 | CN1C(=O)[C@H](NS(N)(=O)=O)Cc2cccc(Oc3cc(F)ccc3Cl)c21 [Example 23] | < 3 µM
21 | CC1(c2ccccc2)CC(C)(C)N2C(=O)[C@H](NC(N)=O)Cc3cccc1c32 (stereo partly drawn) [Example 15, 1-((2R)-5,5,7-trimethyl-3-oxo-7-phenyl-2,3,6,7-tetrahydro-1H,5H-pyrido[3,2,1-ij]quinolin-2-yl)urea] | < 3 µM
22 | CN1C(=O)[C@H](NC(N)=O)Cc2csc(Cc3cc(F)ccc3Cl)c21 [Example 36, (R)-1-(7-(2-chloro-5-fluorobenzyl)-1-methyl-2-oxo-1,2,3,4-tetrahydrothieno[3,4-b]pyridine-3-yl)urea] | < 3 µM
23 | COC(=O)N[C@@H]1Cc2cccc(Oc3cc(F)ccc3Cl)c2N(C)C1=O [Example 22, methyl (R)-(8-(2-chloro-5-fluorophenoxy)-1-methyl-2-oxo-1,2,3,4-tetrahydroquinoline-3-yl)carbamate] | < 3 µM
24 | CN1C(=O)C(NC(N)=O)Cc2scc(C(=O)c3cc(F)ccc3Cl)c21 (centres unmarked) [Example 42, 1-(3-(2-chloro-5-fluorobenzoyl)-4-methyl-5-oxo-4,5,6,7-tetrahydrothieno[3,2-b]pyridin-6-yl) urea] | < 3 µM
25 | Cc1cnc2n1-c1c(cccc1Oc1cc(F)ccc1Cl)CC2NC(N)=O (centres unmarked) [Example 29, 1-(9-(2-chloro-5-fluorophenoxy)-1-methyl-4,5-dihydroimidazo[1,2-a]quinolin-4-yl)urea] | 3 to 30 µM
26 | CN1C(=O)[C@H](N2CCOC2=O)Cc2cccc(Oc3cc(F)ccc3Cl)c21 [Example 25, (R)-3-(8-(2-chloro-5-fluorophenoxy)-1-methyl-2-oxo-1,2,3,4-tetrahydroquinoline-3-yl)oxazo lidine-2-one] | > 30 µM
27 | CN1C(=O)C(NC(N)=O)Cc2cc(NC(=O)OCC3CC3)cc(Oc3cccc(C(F)(F)F)n3)c21 (centres unmarked) [Example 7, cyclopropylmethyl (1-methyl-2-oxo-8-((6-(trifluoromethyl)pyridin-2-yl)oxy)-3-ureido-1,2,3,4-tetrahydroquinoline-6-yl)carbamate] | < 3 µM
28 | CN1C(=O)C(NC(N)=O)Cc2cc(NC(=O)OC3CCCC3)cc(Oc3cccc(C(F)(F)F)n3)c21 (centres unmarked) [Example 5, cyclopentyl (1-methyl-2-oxo-8-((6-trifluoromethylpyridin-2-yl)oxy)-3-ureido-1,2,3,4-tetrahydroquinoline-6-yl)carbamate] | < 3 µM
29 | Cc1sc2c(c1Cc1cc(F)ccc1Cl)N(C)C(=O)[C@H](NC(N)=O)C2 [Example 38, (R)-1-(3-(2-chloro-5-fluorobenzyl)-2,4-dimethyl-5-oxo-4,5,6,7-tetrahydrothieno[3,2-b]pyridin-6-yl)urea] | < 3 µM
30 | Cc1ccc2cc(NC(N)=O)c(=O)n(C)c2c1Oc1cc(F)ccc1Cl [Example 31, 1-(8-(2-chloro-5-fluorophenoxy)-1,7-dimethyl-2-oxo-1,2-dihydroquinoline-3-yl)urea] | > 30 µM
31 | CN1C(=O)[C@H](NC(N)=O)Cc2cccc(CCc3ccccc3)c21 [Example 35, (R)-1-(1-methyl-2-oxo-8-phenethyl-1,2,3,4-tetrahydroquinoline-3-yl)urea] | 3 to 30 µM
32 | Cc1ccc2c(c1Oc1cc(F)ccc1Cl)N(C)C(=O)[C@H](NC(N)=O)[C@H]2O (relative stereo) [Example 21, 1-((3R^*,4S^*)-8-(2-chloro-5-fluorophenoxy)-4-hydroxy-1,7-dimethyl-2-oxo-1,2,3,4-tetrahydroquinoline-3-yl)urea] | < 3 µM

— patent EP4818159A1 (Kissei Pharmaceutical Co., Ltd., priority 2023, dated 2025)
